Legend:
[1] = Inhibition of CDK1/Cyclin B; parameters: species or system Homo sapiens
Bel-7402 = assay: Antiproliferative activity against human Bel7402 cells after 72 hrs; format: functional, cell-based; settings: Bel-7402, 72 h
PC-3 [2] = assay: Antiproliferative activity against human PC3 cells after 72 hrs; format: functional, cell-based; settings: PC-3, 72 h
[3] = Antiproliferative activity against human ECA109 cells after 72 hrs; format: functional, cell-based; settings: ECa-109, 72 h
A549 = assay: Antiproliferative activity against human A549 cells after 72 hrs; format: functional, cell-based; settings: A549, 72 h
HL-60 = assay: Antiproliferative activity against human HL60 cells after 72 hrs; format: functional, cell-based; settings: HL-60, 72 h
MCF7 = assay: Antiproliferative activity against human MCF7 cells after 72 hrs; format: functional, cell-based; settings: MCF7, 72 h
PC-3 [4] = assay: Cell cycle arrest in human PC3 cells assessed as accumulation at G0/G1 phase at 7.2 uM after 12 hrs relative to control by flow cytometry; format: functional
PC-3 [5] = assay: Cell cycle arrest in human PC3 cells assessed as accumulation at S phase at 7.2 uM after 12 hrs relative to control by flow cytometry; format: functional
PC-3 [6] = assay: Cell cycle arrest in human PC3 cells assessed as accumulation at G2/M phase at 7.2 uM after 12 hrs relative to control by flow cytometry; format: functional
PC-3 [7] = assay: Cell cycle arrest in human PC3 cells assessed as accumulation at SubG0 phase at 7.2 uM after 12 hrs relative to control by flow cytometry; format: functional
PC-3 [8] = assay: Cell cycle arrest in human PC3 cells assessed as accumulation at G0/G1 phase at 7.2 uM after 24 hrs relative to control by flow cytometry; format: functional
PC-3 [9] = assay: Cell cycle arrest in human PC3 cells assessed as accumulation at S phase at 7.2 uM after 24 hrs relative to control by flow cytometry; format: functional
PC-3 [10] = assay: Cell cycle arrest in human PC3 cells assessed as accumulation at G2/M phase at 7.2 uM after 24 hrs relative to control by flow cytometry; format: functional
PC-3 [11] = assay: Cell cycle arrest in human PC3 cells assessed as accumulation at SubG0 phase at 7.2 uM after 24 hrs relative to control by flow cytometry; format: functional
PC-3 [12] = assay: Effect on morphology of human PC3 cells assessed as increase in chromatin condensation by staining method; format: functional, cell-based

Row | SMILES | IC50 [1] | IC50 (Bel-7402) | IC50 (PC-3 [2]) | IC50 (A549) | IC50 (HL-60) | IC50 (MCF7) | IC50 [3] | Activity (PC-3 [4]) | Activity (PC-3 [5]) | Activity (PC-3 [6]) | Activity (PC-3 [7]) | Activity (PC-3 [8]) | Activity (PC-3 [9]) | Activity (PC-3 [10]) | Activity (PC-3 [11]) | Activity (PC-3 [12])
1 | COc1cc(OC)c(C(=O)/C=C/c2ccccc2Cl)c(O)c1CN(C)CCCN(C)C | 0.468 µM | 30.9 µM | 14.5 µM | 3.1 µM | 11.4 µM | 3.2 µM | 3.8 µM |  |  |  |  |  |  |  |  | 
2 | COc1cc(OC)c(C(=O)/C=C/c2ccccc2Cl)c(O)c1CN(C)CCO | > 3 µM | 64.4 µM | 6.2 µM | 6.9 µM | 19.7 µM | 10 µM | 0.8 µM |  |  |  |  |  |  |  |  | 
3 | COc1cc(OC)c(C(=O)/C=C/c2ccccc2Cl)c(O)c1CN(C)CC(=O)O |  | 35.2 µM | 12.5 µM | 79.4 µM | 80.3 µM | 73.2 µM | 44.4 µM |  |  |  |  |  |  |  |  | 
4 | COc1cc(O)c2c(=O)cc(-c3ccccc3Cl)oc2c1CN1CCCCC1 | 0.138 µM | 118 µM | 63.4 µM | 45.5 µM | 48.1 µM |  | 21.5 µM |  |  |  |  |  |  |  |  | 
5 | COc1cc(O)c2c(=O)cc(-c3ccccc3Cl)oc2c1CN1CCOCC1 | > 3 µM | > 150 µM | 42 µM | > 150 µM | 26.9 µM | 124 µM | 86.6 µM |  |  |  |  |  |  |  |  | 
6 | COc1cc(OC)c(C(=O)/C=C/c2ccccc2Cl)c(O)c1CN(C)C | 0.503 µM | 21.8 µM | 0.4 µM | 2.1 µM | 19.2 µM | 0.09 µM | 2.6 µM |  |  |  |  |  |  |  |  | 
7 | COC(=O)CN(C)Cc1c(OC)cc(OC)c(C(=O)/C=C/c2ccccc2Cl)c1O | > 3 µM | 8.5 µM | 7.2 µM | 9.1 µM | 0.4 µM | 10.6 µM | 13.9 µM |  |  |  |  |  |  |  |  | 
8 | CCN(C)Cc1c(OC)cc(OC)c(C(=O)/C=C/c2ccccc2Cl)c1O | 0.0758 µM | 23.3 µM | 0.003 µM | 1.3 µM | 0.2 µM | 6.8 µM | 1.4 µM |  |  |  |  |  |  |  |  | 
9 | COc1cc(OC)c(C(=O)/C=C/c2ccccc2Cl)c(O)c1CN1CCOCC1 | 0.0475 µM | 22.7 µM | 17.2 µM | 4.8 µM | 6.9 µM | 17.2 µM | 6.2 µM |  |  |  |  |  |  |  |  | 
10 | COc1cc(OC)c2c(=O)cc(-c3ccccc3Cl)oc2c1CN1CCCCC1 | 0.155 µM | 44.2 µM | 15.5 µM | > 150 µM | 34.5 µM | 23.7 µM | 23.7 µM |  |  |  |  |  |  |  |  | 
11 | COc1cc(OC)c2c(=O)cc(-c3ccccc3Cl)oc2c1CN1CCOCC1 | > 3 µM | 61.3 µM | 57.8 µM | > 150 µM | 67.3 µM |  | 61.3 µM |  |  |  |  |  |  |  |  | 

These reach a lower IC50 (Bel-7402). Values come first.

Row | IC50 [1] | IC50 (Bel-7402) | IC50 (PC-3 [2]) | IC50 (A549) | IC50 (HL-60) | IC50 (MCF7) | SMILES | IC50 [3] | Activity (PC-3 [4]) | Activity (PC-3 [5]) | Activity (PC-3 [6]) | Activity (PC-3 [7]) | Activity (PC-3 [8]) | Activity (PC-3 [9]) | Activity (PC-3 [10]) | Activity (PC-3 [11]) | Activity (PC-3 [12])
12 | 0.324 µM | 8.1 µM | 10 µM | 3.3 µM | 10.8 µM | 5.1 µM | COc1cc(OC)c(C(=O)/C=C/c2ccccc2Cl)c(O)c1CN(C)CCOC(C)=O | 3.9 µM |  |  |  |  |  |  |  |  | 
13 | > 3 µM | 7.6 µM | 4.7 µM | 4.1 µM | 10.9 µM | 5.2 µM | COc1cc(OC)c(C(=O)/C=C/c2ccccc2Cl)c(O)c1CN1CCN(C)CC1 | 7.1 µM |  |  |  |  |  |  |  |  | 
14 | 0.0497 µM | 6.7 µM | 4.2 µM | 3.6 µM | 30.9 µM | 2.7 µM | CCN(CC)Cc1c(OC)cc(OC)c(C(=O)/C=C/c2ccccc2Cl)c1O | 7.1 µM |  |  |  |  |  |  |  |  | 
15 | 1.25 µM | 6.8 µM | 3.1 µM | 2.6 µM | 14.2 µM | 3.9 µM | COc1cc(OC)c(C(=O)/C=C/c2ccccc2Cl)c(O)c1CN1CCCC1 | 6.9 µM |  |  |  |  |  |  |  |  | 
16 | 0.0569 µM | 3.1 µM | 1.7 µM | 2.8 µM | 3.6 µM | 2.6 µM | COc1cc(OC)c(C(=O)/C=C/c2ccccc2Cl)c(O)c1CN1CCCCC1 | 2.5 µM | 60.2% | 25.8% | 14% | 6.1% | 60.7% | 29.9% | 9.8% | 34.1% | Dose-dependent effect
